“Also recorded” adds a separate entry of the source.
Columns and labels:
HCV = conditions: cited from earlier work
[1] = system: H77 (GT 1a) replicon cells; assay: NS5A expression in H77 (GT 1a) replicon cells, transient transduction; assay type: cell-based, Hepatitis C virus; conditions: transient transduction (FIG. 4D)
Text: (§1) FIG. 4D is an image of Western blots showing expression of the proteins NS5A, CyPB, and CyPA in H77 (GT 1a) and Con1 (GT 1b) replicon cells transduced with the indicated shRNAs (sh-Luc or sh-A161);

CyPA [2] = assay: CyPA expression in GS5 cells (Western blot); assay type: cell-based, human
Procedure: (§2) A human immunodeficiency virus (HIV)-based lentiviral vector is used to express all of the short hairpin RNAs (shRNAs). […] Target or sense sequences for the other shRNAs are as follows:
(§3) The above sequences may be converted to RNA sequences by changing each thymine (T) to uracil (U). Lentiviral vector production and transduction are performed as described previously (44). Stable cells expressing shRNAs are obtained by selection with 1 μg/ml of puromycin (MP Biomedicals, Solon, Ohio) for 3 weeks.

[3] = system: GT 1a (H77) subgenomic replicon; assay: Colony formation in stable Huh-7.5 cells electroporated with GT 1a (H77) replicon RNA; assay type: cell-based, Hepatitis C virus; conditions: stable Huh-7.5 cells (FIG. 4C)
Text: (§4) FIG. 4C is an image of plates containing stained Huh-7.5 cells transduced with several shRNAs (sh-Luc, sh-A159, sh-B710, or sh-C454) after four weeks following electroporation with one microgram of either H77 (GT 1a) or Con1 (GT 1b) replicons;
(§5) GS5 and RS2 cells contain GT 1b replicons with the GFP gene inserted into the NS5A region. (See, e.g., Moradpour, D. et al., “Insertion of green fluorescent protein into nonstructural protein 5A allows direct visualization of functional hepatitis C virus replication complexes,” J. Virol. 78:7400-7409 (2004); Nelson, H. B. et al., “Effect of cell growth on hepatitis C virus (HCV) replication and a mechanism of cell confluence-based inhibition of HCV RNA and protein expression,” J. Virol. 80:1181-1190 (2006)). Next the effect of CyPA knock-down on replicons without GFP is examined. Both GT 1a and 1b replicons are tested. To this end, stable Huh-7.5 cell lines are established that express the various shRNAs and then challenges them, by electroporation, with in vitro-transcribed GT 1a (H77) and 1b (Con1) subgenomic replicon RNAs. The shRNAs effectively silence the expression of their respective targets in the stable cells as expected (FIGS. 4A and 4B). No defect in morphology or growth rate is detected for any of the stable cell lines, confirming that these CyPs are dispensable for cell survival in vitro.

RS2 replicon cells [4] = assay: NS5A-GFP expression in RS2 cells by FACS; assay type: cell-based, Hepatitis C virus
Text: In contrast to the GS5 replicon, RS2 replicates efficiently in the presence of substantial CyPA knock-down (FIG. 1D).

[5] = system: Con1 (GT 1b) replicon cells; assay: NS5A expression in Con1 (GT 1b) replicon cells, transient transduction; assay type: cell-based, Hepatitis C virus; conditions: transient transduction (FIG. 4D)
Text: as §1

Rep1b RNA = conditions: day 4 vs 7 hours after electroporation (FIG. 2E)
Procedure: A parallel electroporation of Rep1b RNA into Huh-7.5/sh-Luc cells serves as a positive control, which is set at 100%;
One microgram of replicon RNA is mixed with 9 μg of a pcDNA3.1-based plasmid containing no insert, CyPA cDNA, CyPB cDNA, or CyPC cDNA and used in a standard electroporation (36). RNA is extracted 7 h and 4 days post-electroporation and subjected to quantitative RT-PCR analysis to detect HCV RNA as described previously (See, e.g., Robida, J. M et al., Characterization of hepatitis C virus subgenomic replicon resistance to cyclosporine in vitro, J. Virol., 81:5829-5840 (2007). All the CyP cDNAs are tagged with a Myc epitope at the C terminus, and the CyPA cDNA containing silent mutations in the sh-A159 recognition site is designated CyPA#.

HCVcc/JFH-1 = HCVcc/JFH-1 infection of Huh-7.5 cells; assay type: cell-based, Hepatitis C virus
Text: FIG. 5A is an image of an RNA gel showing HCV IRES RNA levels relative to cellular RNA helicase A (RHA) RNA in total RNA extracts from Huh7.5 cells transduced with several shRNAs (sh-Luc, sh-A159, or sh-B710) following infection with HCVcc/JFH-1 for nine days;
FIG. 5B is a fluorescence microscopy image showing anticore antibody and DAPI (4′,6′-diamidino-2-phenylindole) staining of paraformaldehyde fixed Huh7.5 cells transduced with either sh-Luc or sh-A159 following infection with HCVcc/JFH-1 for nine days;
FIG. 5C is an image of Western blots showing expression of the proteins NS3, GAPDH, and CyPA in total protein extracts from Huh7.5 cells transduced with the indicated shRNAs (sh-Luc or sh-A159) at 0, 9, or 12 days after infection with HCVcc/JFH-1 replicons; […]
Full-length JFH-1 cDNA is provided by Takaji Wakita. Production of infectious HCVcc and infection of Huh-7.5 cells are performed as described previously (See, e.g., Zhong, J. et al., “Robust hepatitis C virus infection in vitro,” Proc. Natl. Acad. Sci. USA, 102:9294-9299 (2005)). Western blotting and immunostaining of infected cells are carried out according to standard methods.

[6] = system: GT 1b (Con1) subgenomic replicon; assay: Colony formation in stable Huh-7.5 cells electroporated with GT 1b (Con1) replicon RNA; assay type: cell-based, Hepatitis C virus; conditions: stable Huh-7.5 cells (FIG. 4C)
Text: as §4, §5

GS5 replicon cells [7] = assay: NS5A expression in GS5 replicon cells (Western blot); assay type: cell-based, Hepatitis C virus; conditions: for NS5A expression: GS5 cells
CyPA [8] = assay: CyPA expression in RS2 cells (Western blot); assay type: cell-based, human; conditions: RS2 cells stably expressing shRNA (FIG. 3B)
Procedure: as §2, §3

GS5 replicon cells [9] = assay: Colony formation assay, puromycin and G418 double selection, GS5 cells; assay type: cell-based, Hepatitis C virus
RS2 replicon cells [10] = assay: Colony formation assay, puromycin and G418 double selection, RS2 cells; assay type: cell-based, Hepatitis C virus
[11] = system: vesicular stomatitis virus; assay type: cell-based; conditions: sh-A159 Huh-7.5 cells (FIG. 5D)
RS2 replicon cells [12] = assay: NS5A expression in CsA-resistant RS2 replicon cells (Western blot); assay type: cell-based, Hepatitis C virus; conditions: lentiviral shRNA, 7 days
[13] = synthesized siRNA duplex, transient transfection (FIG. 2C)

alpha-interferon and ribavirin
sustained efficacy, share of patients (HCV): 40%

sh-A159: shRNA against CyPA; sense sequence nucleotides 159 through 179 of human CyPA cDNA, hairpin UUCAAGAGA (SEQ ID NO: 3) (AAGGGUUCCUGCUUUCACAGAUUCAAGAGAUCUGUGAAAGCAGGAACCCUU)
NS5A expression [1]: inhibitory effect
CyPA expression (CyPA [2]; lentiviral shRNA, 7 days (FIG. 2B)): knock down CyPA expression; also recorded: most effective
ability of replicon RNA to form colonies [3]: completely inhibits
suppression of NS5A-GFP expressing RS2 cells (RS2 replicon cells [4]; no selection, 0.5 μg/ml CsA, FACS (FIG. 3C)): no significant suppression
sensitivity of RS2 replicon to CsA relative to RS2/sh-Luc (RS2 replicon cells [4]; stable RS2 cells, CsA 4 days, FACS (FIG. 3A)): six to eight times more sensitive
NS5A expression [5]: inhibitory effect
HCV RNA replication with sh-A159-insensitive CyPA cDNA (Myc-A#) (Rep1b RNA): partially rescued
HCV infection of stable shRNA cells (HCVcc/JFH-1; Huh-7.5, HCVcc/JFH-1, RT-PCR, core staining, NS3 Western blot): highly refractory to infection
viral replication (NS3 expression) in an existing infection (HCVcc/JFH-1; Huh-7.5 infected with JFH-1 for 10 days, then transduced, NS3 measured 7 days after transduction): suppresses viral replication
ability of replicon RNA to form colonies [6]: completely inhibits
NS5A expression (GS5 replicon cells [7]; lentiviral shRNA, 7 days): inhibits NS5A expression; also recorded: most effective
NS5A expression with sh-A159-insensitive CyPA cDNA (Myc-A#) (GS5 replicon cells [7]; replicon cells, sh-A159 together with Myc-A# (FIG. 2D)): partially rescued
CyPA expression (CyPA [8]): substantial suppression
number of double-resistant colonies (GS5 replicon cells [9]): significantly lower number
number of double-resistant colonies (RS2 replicon cells [10]): not observed
susceptibility to infection by vesicular stomatitis virus [11]: fully susceptible

sh-C454: shRNA directed at CyPC, nucleotides 454-474 of human CyPC cDNA (SEQ ID NO: 10) (AAGACTGAAGGTGTGCTGGTA) [reference compound]
NS5A expression (RS2 replicon cells [12]): no effect
NS5A expression (GS5 replicon cells [7]; lentiviral shRNA, 7 days): no effect

si-A159: synthesized siRNA duplex form of sh-A159 (sense SEQ ID NO: 2, antisense SEQ ID NO: 4) (sense AAGGGUUCCUGCUUUCACAGA; antisense UCUGUGAAAGCAGGAACCCUU; listed as RNA, chemistry not given here)
CyPA expression (CyPA [2]; [13]): inhibited; also recorded: no more potent than si-A285
NS5A expression (GS5 replicon cells [7]; [13]): inhibited

Source: patent US8871919B2, “RNAi therapeutic for treatment of Hepatitis C infection” (Florida State University Research Foundation, priority 2007, dated 2014)
